We go through 13 compounds from ChEMBL document CHEMBL1201862, “PubChem BioAssay data set” (2004).

The source made the active and inactive calls.

The target of assay [1] is T1, Oxysterols receptor LXR-beta (Homo sapiens, UniProt P55055).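 Note: agonist activity at LXR measured by a cell-based luminescence readout across a dose range, run as a counterscreen for daf-12 agonists; HEK293 cells with Gal4-LXR fusion and GAL4-driven luciferase reporter; potency for activation of Gal4-LXR reporter so compounds are agonists.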
T1 sequence (P55055 whole entry): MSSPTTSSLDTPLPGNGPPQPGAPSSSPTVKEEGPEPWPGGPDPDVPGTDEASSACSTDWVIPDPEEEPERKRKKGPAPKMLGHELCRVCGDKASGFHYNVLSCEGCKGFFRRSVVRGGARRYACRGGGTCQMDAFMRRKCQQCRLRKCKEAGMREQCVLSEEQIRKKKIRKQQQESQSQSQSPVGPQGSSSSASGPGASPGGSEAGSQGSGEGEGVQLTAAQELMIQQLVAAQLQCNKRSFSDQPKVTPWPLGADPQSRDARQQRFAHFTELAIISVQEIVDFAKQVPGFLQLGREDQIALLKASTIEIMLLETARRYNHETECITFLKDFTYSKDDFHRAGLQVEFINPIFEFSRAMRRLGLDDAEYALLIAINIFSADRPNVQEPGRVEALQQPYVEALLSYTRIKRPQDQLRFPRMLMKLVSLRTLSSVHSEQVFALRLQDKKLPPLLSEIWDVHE
The assay is classed as functional, cell-based.

Assay [2] can be described thus: A Cell-Based Confirmatory Screen for Compounds that Inhibit VEEV, TC-83 (8). The assay is classed as functional.
The target of assay [3] is Scavenger receptor class B member 1 (Mus musculus, UniProt Q61009). Kind of assay: inhibitors of SR-BI-mediated HDL uptake, dose response, cell-based, ldlA[mSR-BI] CHO, DiI fluorescence, dry powder, set 10 (AID 624029). The class given is functional.
A short description of assay [4]: A2780 ovarian cancer cell cytotoxicity, dose response, cytotoxicity control, plate reader, dry powder samples (AID 743046). The class given is functional, cell-based.
A short description of assay [5]: cytotoxicity in HEK-293T cells, dose response, cytotoxicity control for TCR NF-kB inhibitor project, luminescence, T-cell screen hits (AID 489026).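 Note: cells exposed to compound about 14 hours before the viability readout.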 The assay is classed as functional, cell-based.
Assay [6] can be described thus: MC4R antagonists, dose response, counter-screen for LGR2 antagonist project, cell-based, plate reader, cherry pick (AID 743444).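 Note: transfected HEK 293 cells stimulated with alpha-MSH peptide; potency of inhibitors of the alpha-MSH evoked signal.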 The class given is functional. Background: A counterscreen serves to expose hits that act by an unwanted route or on another target.
Assay [7] is described as follows: IGROV1 ovarian cancer cell cytotoxicity, dose response, PAX8 inhibitor project, plate reader, dry powder samples (AID 743043). The class given is functional, cell-based. The following applies: IGROV-1.
The nature of assay [8]: cytotoxicity in OVCAR4 cells, dose response, cytotoxicity control for PAX8 inhibitor project, cell-based, plate reader, dry powder, SA11 (AID 743150). As to conditions: OVCAR-4. The class given is functional.
A short description of assay [9]: LGR2 antagonists, dose response, cell-based, HEK293, CRE-luciferase reporter, cherry pick, set 2 (AID 743343).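 Note: transfected cells were stimulated with diluted bursicon conditioned medium after compound addition.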 The assay is classed as functional.
Assay [10] is described as follows: cytotoxicity in COV434 cells, dose response, cytotoxicity control for PAX8 inhibitor project, cell-based, plate reader, dry powder, SA7 (AID 743145). The class given is functional.
A short description of assay [11]: PAX2 cell-based inhibition, dose response, selectivity assay for PAX8 inhibitor project, plate reader, dry powder samples (AID 743048).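 Note: HEK293 cells carrying a WT1 promoter luciferase reporter driven by expressed Pax2; potency is for inhibition of Pax2 driven reporter signal.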 The assay is classed as functional.
The nature of assay [12]: A549 cell cytotoxicity, dose response, cytotoxicity control, plate reader, cherry-pick, antagonist series (AID 743412). The assay is classed as functional, cell-based.
Assay [13] in a line: HEK293 cell cytotoxicity, dose response, cytotoxicity control, plate reader, cherry-picked samples (AID 743446). The assay is classed as functional, cell-based.
A short description of assay [14]: PAX5 activity inhibitors, dose response, selectivity assay for PAX8 inhibitor project, cell-based, plate reader, dry powder samples (AID 743047).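 Note: HEK293 cells carrying a Pax5 driven CD19 promoter luciferase reporter; potency of inhibitors that lower reporter luminescence.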 The class given is functional.
A short description of assay [15]: NIH:OVCAR-3 ovarian cancer cell cytotoxicity, dose response, PAX8 inhibitor project, plate reader, dry powder samples (AID 743044). The class given is functional, cell-based.
Assay [16] in a line: IOSE-T80 ovarian epithelial cell cytotoxicity, dose response, cytotoxicity control for PAX8 inhibitor project, plate reader, dry powder samples (AID 743045). The class given is functional, cell-based.
The nature of assay [17]: cytotoxicity in OV-90 ovarian cancer cells, dose response, PAX8 inhibitor project, cell-based, plate reader, dry powder, SA8 (AID 743149). The class given is functional.
Assay [18] in a line: non-specific cell cytotoxicity, dose response, cytotoxicity control for PAX8 inhibitor project, plate reader, dry powder samples (AID 743021). The assay is classed as functional, cell-based.
Assay [19] in a line: HepG2 cell cytotoxicity, dose response, cytotoxicity control, plate reader, cherry-pick, antagonist series (AID 743416). The assay is classed as functional, cell-based.
The nature of assay [20]: cytotoxicity in COV362 ovarian cancer cells, dose response, cytotoxicity control for PAX8 inhibitor project, cell-based, plate reader, dry powder, SA12 (AID 743144). The class given is functional.
Assay [21] can be described thus: cytotoxicity dependent on PAX8, dose response, cell-based, plate reader, dry powder (AID 743049). The assay is classed as functional.
The target of assay [22] is Paired box protein Pax-8 (Homo sapiens, UniProt Q06710). Kind of assay: inhibitors of PAX8-driven TPO luciferase reporter, dose response, RMG-I cells, cherry-pick (AID 687027).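 Note: luciferase reporter driven by Pax8 target thyroperoxidase promoter measured by SteadyGlo luminescence.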 The assay is classed as functional, cell-based. (In general: A reporter such as luciferase makes a cellular process visible.)
The subject of assay [23] is HeLa. Kind of assay: HeLa cell cytotoxicity, dose response, cytotoxicity control, ATP luminescence, cherry-pick samples (AID 687004). The class given is functional, cell-based. As to conditions: Homo sapiens.
Assay [24] is described as follows: cells. The class given is functional.
Assay [25] has as its target Nonstructural protein 1 (Influenza A virus, UniProt Q194T2). The assay is classed as functional, Influenza A virus (A/California/07/2009(H1N1)).
Assay [26] concerns the target Matrix metalloproteinase-14 (Homo sapiens, UniProt P50281). Kind of assay: Dose Response confirmation of uHTS hits for a small molecule inhibitors of MT1-MMP activation in a fluorescence assay set 1. The class given is functional.
The nature of assay [27]: THP-1 cell cytotoxicity, dose response, cytotoxicity control for non-replicating M. tuberculosis project (AID 489025). The class given is functional.
The target of assay [28] is COUP transcription factor 2 (Homo sapiens, UniProt P24468). Kind of assay: Luminescence-based cell-based high throughput dose response assay to identify inhibitors of COUP-TFII (NR2F2). The class given is functional.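 Note: HEK293 cells transiently cotransfected with COUP-TFII expression vector and reporter; luciferase reporter luminescence driven by COUP-TFII from the pX2-168 reporter plasmid.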
Assay [29] is described as follows: cells. The assay is classed as functional, cell-based.
Assay [30] addresses T2, Trace amine-associated receptor 1 (Homo sapiens, UniProt Q96RJ0). Kind of assay: Counterscreen for agonists of the human trace amine associated receptor 1 (hTAAR1): Fluorescence-based cell-based high throughput dose response assay to identify hTAAR1 agonist that also desensitize TAAR1 receptor response. The class given is functional.
Assay [31] concerns the target T2, Trace amine-associated receptor 1. Kind of assay: Fluorescence-based cell-based high throughput dose response assay to identify agonists of the human trace amine associated receptor 1 (TAAR1). The class given is functional.
Assay [32] can be described thus: cells. The class given is functional, cell-based. The source holds these as a separate data set.
The nature of assay [33]: HepG2 cell cytotoxicity, dose response, cytotoxicity control for Shn3 inhibitor project, CellTiter-Glo, cherry-picked (AID 624134). The assay is classed as functional, cell-based. For orientation: In ATP-based viability assays light output follows the ATP content of the culture.
The nature of assay [34]: Shn3 3'UTR reporter inhibitors, dose response, cell-based, Clone20 osteoblasts, firefly luciferase, cherry-picked (AID 624132).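 Note: firefly luciferase luminescence from reporter carrying the Shn3 3'UTR in osteoblasts.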 The class given is functional.
The nature of assay [35]: control 3'UTR Renilla luciferase suppression, dose response, counter-screen for Shn3 inhibitor project, cell-based, Clone20-Shn3RL, cherry-picked (AID 624133). The class given is functional.
Assay [36] is described as follows: reduction of Shn3 3'UTR firefly luciferase signal, dose response, Schnurri-3 inhibitor project, cell-based, Clone20 osteoblasts, cherry-pick, set 2 (AID 720490).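 Note: actives lower the luminescence signal as inhibitors.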 The class given is functional.
Assay [37] in a line: inhibitors of control Renilla luciferase reporter, dose response, counter-screen for Shn3 3'UTR targeting project, Clone20-Shn3RL cells, dual-Glo, cherry-pick, set 2 (AID 720724). The assay is classed as functional, cell-based. As to conditions: Dual-Go Shn3RL.
Assay [38] concerns the target Beta-2 adrenergic receptor (Homo sapiens, UniProt P07550). Kind of assay: beta2AR agonists driving receptor internalization, dose response, cell-based, FAP fluorogen, flow cytometry, cherry pick 1 (AID 588763). The class given is functional.
Assay [39] in a line: reduction of endogenous Shn3 mRNA, dose response, qPCR, Clone20 cells, cherry-pick (AID 743415). The class given is functional, cell-based.
Assay [40] can be described thus: HEK293T cell cytotoxicity, dose response, cytotoxicity control, luminescence plate reader, powder samples, set 4 (AID 651863). The assay is classed as functional, cell-based. As to conditions: HEK293.
Assay [41] in a line: HepG2 cell cytotoxicity, dose response, cytotoxicity control, luminescence plate reader, powder samples, set 2 (AID 651860). The assay is classed as functional, cell-based.
Assay [42] in a line: cells.
The target of assay [43] is Major prion protein (Homo sapiens, UniProt P04156). The class given is functional, cell-based.
Assay [44] has as its target Disintegrin and metalloproteinase domain-containing protein 17 (Homo sapiens, UniProt P78536). Kind of assay: ADAM17 protease inhibitors, dose response, counter-screen for ADAM10 exosite inhibitor project, biochemical, quenched FRET substrate (AID 743253).
A short description of assay [45]: ADAM10 inhibitors, peptide cleavage, dose response, biochemical, QFRET (AID 743254).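 Note: ADAM10 enzyme with the DM2 quenched FRET peptide as substrate; EDANS fluorescence gain as the protease cuts the substrate; inhibitor potency against ADAM10 proteolytic activity.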
In assay [46] the target is Metabotropic glutamate receptor 3 (Rattus norvegicus, UniProt P31422). Kind of assay: mGlu3 NAM potency via calcium readout, dose response, mGlu3 NAM project, TREx293 cells, Galpha15, calcium flux (AID 651840). The assay is classed as functional.

As usually defined, the EC50 is the concentration at which the effect is half-maximal. On to `Nc1c(-c2cccs2)cnc2c(-c3ccc(F)cc3)cnn12`, for which the EC50 in [1] was > 67.5 µM (inactive).

One may read the IC50 as the point on the concentration scale where inhibition reaches its midpoint. As for `CN1CCN(C)/C(=N/c2cc(Cl)c(C#N)cc2C(=O)Nc2ccccc2)C1`, the IC50 in assay [2] is < 0.26 µM (active).

Usually AC50 stands for the midpoint of the concentration-response curve, whichever way the signal moves. Turning to `CC(C)NC(=O)Nc1ccc2c(c1)C(=O)N([C@@H](C)CO)C[C@H](C)[C@H](CN(C)S(=O)(=O)c1ccc(Cl)cc1)O2`, the AC50 in assay [3] is > 70 µM (inactive).

For the compound `Cc1cnc(NC(=O)c2ccc3c(c2)OCCO3)s1`, the AC50 was 28.8 µM (active) in [4]; 0.794 µM (active) in [6]; 20.7 µM (active) in [7]; 26.8 µM (active) in assay [8]; 0.854 µM (active) in assay [9]; 29.4 µM (active) in [10]. The AC50 was 13.4 µM (active) in assay [11]; 5.12 µM (active) in assay [12]; 31.4 µM (active) in [13]; 17.5 µM (active) in assay [14]; 18.4 µM (active) in assay [15]; 26 µM (active) in assay [16]. Also, the AC50 in assay [17] is 9.33 µM (active); in [18], 52.3 µM (active); in assay [19], 36 µM (active); in [20] it was 10.2 µM (active); in assay [21] it was 13.1 µM (active); in [22], 3.49 µM (active). Also, in [5], the IC50 is > 80 µM (inactive).

As to `C[C@@H]1CN([C@@H](C)CO)C(=O)c2cc(NC(=O)Nc3cccc4ccccc34)ccc2O[C@@H]1CN(C)C(=O)Nc1ccccc1`, in assay [23], the half-maximal activity concentration (AC50) is 0.252 µM (active).

The term CC50 denotes the concentration at which the toxic effect on the cells reaches its halfway point. `COc1ccc(Nc2ccccc2N)cc1`: the results for the IC50 in assay [24], in assay [25] and in assay [26] were 1.41 µM (active), 42.8 µM (active) and 8.32 µM (active), respectively. Moreover, the CC50 in assay [27] is 38.1 µM (active).

With `Cc1nn(C)c(C)c1NC(=O)COc1ccc(Cl)cc1Br`, in assay [28], the half-inhibitory concentration (IC50) was 8.76 µM (active).

As for `CC(=NCCc1ccc(O)cc1)C1=C(O)OCC1`, the results for the IC50 in [29] and in assay [30] were > 29.9 µM (inactive) and 9.27 µM (active), respectively. Further, the EC50 in [31] is 2.05 µM (active); in [32] it was > 29.9 µM (inactive).

In the case of `Cn1nnnc1Sc1ncnc2scc(-c3ccc(Br)cc3)c12`, the AC50 in [33] is 19.2 µM (active); in assay [6] it was 15.6 µM (active); in [34], 0.334 µM (active); in assay [35], 14.4 µM (active); in assay [9], 8.94 µM (active); in assay [12] it was 6.82 µM (active). The concentration at half-maximal activity (AC50) was 11.2 µM (active) in [13]; 5.82 µM (active) in assay [36]; 5.09 µM (active) in [37]; 7.97 µM (active) in [19]; 17.6 µM (active) in [39]; 3.56 µM (active) in assay [22]. Also, the EC50 in assay [38] was 8.44 µM (active).

For `COc1ccc(CC/N=C2\C=C(NS(=O)(=O)c3c(C)cc(C)cc3C)c3ccccc3C2=O)cc1`, the AC50 in [40] and in [41] was > 52 µM (inactive) throughout.

Regarding `CN(C)S(=O)(=O)c1ccc(N2CCCC2)c(C(=O)Nc2nc3ccccc3s2)c1`, the figures for the IC50 in [42] and in assay [43] were > 138 µM (inactive) and 10.4 µM (inactive), respectively.

Take `O=C(CC1S/C(=N\c2ccccc2)N(Cc2ccccn2)C1=O)Nc1ccc(Br)cc1` (configuration not stated): the IC50 in assay [44] is > 69.5 µM (inactive); in assay [45] it was 37.4 µM (inactive).

As for `COc1ccc(C#Cc2ccc(C(=O)N3CCCC4(C3)OCCO4)cc2)cc1`, the IC50 in assay [46] came to 7.17 µM.
